Results on 10 compounds are retold here after paper PMC6598542, “Synthesis of a new series of 3-functionalised-1-phenyl-1,2,3-triazole sulfamoylbenzamides as carbonic anhydrase I, II, IV and IX inhibitors” (Journal of Enzyme Inhibition and Medicinal Chemistry, 2019).

Common to all, as to test: stopped-flow CO2 hydration
Format in all cases: biochemical

One assay concerns the target T1, hCA I (Homo sapiens, UniProt P00915).
T1 construct: gene CA1; recombinant, cytosolic isoform
In outline:
(§1)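 Inhibition of recombinant human isozymes was measured by stopped-flow CO2 hydration, and Ki was obtained by non-linear least-squares fitting with the Cheng-Prusoff equation. Enzyme and inhibitor were first preincubated for 10 min at room temperature, then the reaction was followed for 5–10 s at 557 nm and 25 °C in 10 mM Hepes pH 7.4 containing 0.2 mM Phenol Red and 0.1 M Na2SO4 or NaClO4, with CO2-saturated water as substrate. Each value is the mean of at least three determinations, from at least seven inhibitor concentrations down to 0.01 nM tested in triplicate.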

A further assay addresses T2, hCA IV (Homo sapiens, UniProt P22748).
T2 construct: gene CA4
In outline: as §1

The target in another assay is T3, hCA II (Homo sapiens, UniProt P00918).
T3 construct: gene CA2; recombinant, cytosolic isoform
The note with it: read-out: hCAII. The procedure, abridged: as §1

For the next assay, the target named is T4, hCA IX (Homo sapiens, UniProt Q16790).
T4 construct: gene CA9; recombinant, transmembrane isoform
In outline: as §1

Molecules are shown by their SMILES.

T2 sequence (P22748 19-284): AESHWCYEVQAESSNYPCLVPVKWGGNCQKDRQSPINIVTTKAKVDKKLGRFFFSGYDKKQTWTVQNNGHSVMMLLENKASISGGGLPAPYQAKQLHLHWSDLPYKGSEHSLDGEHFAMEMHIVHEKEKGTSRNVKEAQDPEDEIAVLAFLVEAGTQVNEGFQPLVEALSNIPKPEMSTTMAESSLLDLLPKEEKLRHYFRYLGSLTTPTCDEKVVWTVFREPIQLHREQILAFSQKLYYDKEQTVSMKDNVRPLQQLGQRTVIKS
T1 sequence (P00915 2-261): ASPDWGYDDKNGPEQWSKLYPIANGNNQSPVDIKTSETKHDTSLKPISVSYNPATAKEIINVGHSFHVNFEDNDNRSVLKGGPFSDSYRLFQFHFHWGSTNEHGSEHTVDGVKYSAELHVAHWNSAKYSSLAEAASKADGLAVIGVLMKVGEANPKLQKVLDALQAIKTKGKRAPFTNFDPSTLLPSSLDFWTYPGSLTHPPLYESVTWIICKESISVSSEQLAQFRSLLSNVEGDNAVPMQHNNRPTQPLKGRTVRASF

On to `COc1cc(-n2cc(CNC(=O)c3ccc(Cl)c(S(N)(=O)=O)c3)nn2)cc(OC)c1OC` [6j, 4-Chloro-3-sulfamoyl-N-((1–(3,4,5-trimethoxyphenyl)-1H-1,2,3-triazol-4-yl)methyl)-benzamide], for which the Ki at hCA I was 479 nM; on hCA IV, 2280 nM; on hCA II it was 51.4 nM; on hCA IX it was 212 nM.

In the case of `COc1ccc(-n2cc(CNC(=O)c3ccc(Cl)c(S(N)(=O)=O)c3)nn2)cc1` [6k, 4-Chloro-N-((1–(4-methoxyphenyl)-1H-1,2,3-triazol-4-yl)methyl)-3-sulfamoylbenzamide], the Ki at hCA I was 86.7 nM; on hCA IV, 80 nM; on hCA II it was 56.5 nM; at hCA IX it was 41.6 nM.

Consider `NS(=O)(=O)c1cc(C(=O)NCc2cn(-c3ccc(C(F)(F)F)cc3)nn2)ccc1Cl` [6m, 4-Chloro-3-sulfamoyl-N-((1–(4-(trifluoromethyl)phenyl)-1H-1,2,3-triazol-4-yl)methyl)benzamide], for which the Ki on hCA I came out at 811 nM; at hCA IV, 89.9 nM; on hCA II, 7.8 nM; on hCA IX it was 34.6 nM.

On to `NS(=O)(=O)c1cc(C(=O)NCc2cn(-c3ccccc3)nn2)ccc1F` [6n, 4-Fluoro-N-((1-phenyl-1H-1,2,3-triazol-4-yl)methyl)-3-sulfamoylbenzamide], for which the Ki at hCA I is 890 nM; on hCA IV, 240 nM; on hCA II, 49.7 nM; at hCA IX, 84.5 nM.

Consider `COc1ccc(-n2cc(CNC(=O)c3ccc(F)c(S(N)(=O)=O)c3)nn2)cc1` [6o, 4-Fluoro-N-((1–(4-methoxyphenyl)-1H-1,2,3-triazol-4-yl)methyl)-3-sulfamoylbenzamide], for which the Ki is 69.2 nM on hCA I, 175 nM at hCA IV, 73.5 nM on hCA II and 63.1 nM on hCA IX.

Regarding `NS(=O)(=O)c1cc(C(=O)NCc2cn(-c3ccc(C(F)(F)F)cc3)nn2)ccc1F` [6p, 4-Fluoro-3-sulfamoyl-N-((1–(4-(trifluoromethyl)phenyl)-1H-1,2,3-triazol-4-yl)methyl)benzamide], the Ki at hCA I was 369 nM; on hCA IV it was 91.8 nM; at hCA II, 91.1 nM; on hCA IX, 235 nM.

For the compound `NS(=O)(=O)c1cc(C(=O)NCc2cn(-c3cccc(F)c3)nn2)ccc1F` [6q, 4-Fluoro-N-((1–(3-fluorophenyl)-1H-1,2,3-triazol-4-yl)methyl)-3-sulfamoylbenzamide], the Ki at hCA I turned out to be 426 nM; on hCA IV, 5310 nM; on hCA II, 329 nM; on hCA IX, 30.8 nM.

For `Cc1ccc(-n2cc(CNC(=O)c3ccc(F)c(S(N)(=O)=O)c3)nn2)cc1` [6r, 4-Fluoro-3-sulfamoyl-N-((1-(p-tolyl)-1H-1,2,3-triazol-4-yl)methyl)benzamide], the Ki at hCA I was 836 nM; at hCA IV it was 215 nM; on hCA II it was 260 nM; on hCA IX, 67.5 nM.

Turning to `N#Cc1cccc(-n2cc(CNC(=O)c3ccc(F)c(S(N)(=O)=O)c3)nn2)c1` [6s, N-((1–(3-cyanophenyl)-1H-1,2,3-triazol-4-yl)methyl)-4-fluoro-3-sulfamoylbenzamide], the Ki on hCA I is 696 nM; at hCA IV, 3400 nM; at hCA II, 402 nM; at hCA IX it was 67.9 nM.

Regarding `NS(=O)(=O)c1cc(C(=O)NCc2cn(-c3ccc(Br)cc3)nn2)ccc1F` [6t, N-((1–(4-bromophenyl)-1H-1,2,3-triazol-4-yl)methyl)-4-fluoro-3-sulfamoylbenzamide], the Ki is 696 nM on hCA I, 515 nM at hCA IV, 372 nM at hCA II and 71.5 nM on hCA IX.
